# Source: ChEMBL document CHEMBL1125223, “Synthesis and antibacterial activities of C-21 functionalized derivatives of (9R)-9-amino-9-deoxoerythromycins A and B” (1991)
# What was measured:
# Type in all cases: functional
# Micrococcus luteus [1] = experiment: Concentration required to inhibit Micrococcus luteus ATCC 4698 stain by standard agar dilution method.
# Streptococcus agalactiae = experiment: Concentration required to inhibit Streptococcus agalactiae CMX508 stain by standard agar dilution method.
# Escherichia coli [2] = experiment: Concentration required to inhibit Escherichia coli KNK 437 stain by standard agar dilution method.
# Staphylococcus aureus [3] = experiment: Concentration required to inhibit 45 stain Staphylococcus aureus 45 by standard agar dilution method.
# Escherichia coli [4] = experiment: Concentration required to inhibit Escherichia coli DC-2 stain by standard agar dilution method.
# Escherichia coli [5] = experiment: Concentration required to inhibit Escherichia coli SS stain by standard agar dilution method.
# Streptococcus pyogenes [6] = experiment: Concentration required to inhibit Streptococcus pyogenes 2548 INDUC stain by standard agar dilution method.
# Staphylococcus aureus [7] = experiment: Concentration required to inhibit CMX553 Staphylococcus aureus CMX553 stain by standard agar dilution method
# Escherichia coli [8] = experiment: Concentration required to inhibit Escherichia coli JUHL stain by standard agar dilution method.
# [9] = system: Acinetobacter calcoaceticus; experiment: Concentration required to inhibit Acinetobacter calcoaceticus CMX669 stain by standard agar dilution method.
# Burkholderia cepacia = experiment: Concentration required to inhibit Pseudomonas cepacia 2961 stain by standard agar dilution method.
# Klebsiella aerogenes = experiment: Concentration required to inhibit Enterobacter aerogenes ATCC 13048 stain by standard agar dilution method.
# [10] = system: Staphylococcus epidermidis; experiment: Concentration required to inhibit Staphylococcus epidermis 3519 stain by standard agar dilution method.
# Escherichia coli [11] = experiment: Concentration required to inhibit Escherichia coli H 560 stain by standard agar dilution method.
# Enterococcus faecium = experiment: Concentration required to inhibit Enterococcus faecium ATCC 8043 stain by standard agar dilution method.
# Streptococcus pyogenes [12] = experiment: Concentration required to inhibit Streptococcus pyogenes 930CONST stain by standard agar dilution method.
# Staphylococcus aureus [13] = experiment: Concentration required to inhibit Staphylococcus aureus ATCC 6538P stain by standard agar dilution method
# Micrococcus luteus [14] = experiment: Concentration required to inhibit Micrococcus luteus ATCC 9341 stain by standard agar dilution method.
# Klebsiella pneumoniae = experiment: Concentration required to inhibit Klebsiella pneumoniae ATCC 8045 stain by standard agar dilution method.
# Streptococcus pyogenes [15] = experiment: Concentration required to inhibit Streptococcus pyogenes EES61 stain by standard agar dilution method.
# Streptococcus equinus = experiment: Concentration required to inhibit Streptococcus bovis A5169 stain by standard agar dilution method.
# Pseudomonas aeruginosa [16] = experiment: Concentration required to inhibit Pseudomonas aeruginosa K799/61 stain by standard agar dilution method.
# Pseudomonas aeruginosa [17] = experiment: Concentration required to inhibit Pseudomonas aeruginosa K799/WT stain by standard agar dilution method.
MIC (Micrococcus luteus [1]),MIC (Streptococcus agalactiae),MIC (Escherichia coli [2]),MIC (Staphylococcus aureus [3]),MIC (Escherichia coli [4]),MIC (Escherichia coli [5]),MIC (Streptococcus pyogenes [6]),MIC (Staphylococcus aureus [7]),MIC (Escherichia coli [8]),MIC [9],MIC (Burkholderia cepacia),MIC (Klebsiella aerogenes),MIC [10],MIC (Escherichia coli [11]),MIC (Enterococcus faecium),MIC (Streptococcus pyogenes [12]),MIC (Staphylococcus aureus [13]),MIC (Micrococcus luteus [14]),MIC (Klebsiella pneumoniae),MIC (Streptococcus pyogenes [15]),Compound,also measured
3.1 µg/mL,3.1 µg/mL,> 100 µg/mL,25 µg/mL,50 µg/mL,1.56 µg/mL,100 µg/mL,25 µg/mL,> 100 µg/mL,> 100 µg/mL,> 100 µg/mL,> 100 µg/mL,25 µg/mL,25 µg/mL,12.5 µg/mL,> 100 µg/mL,25 µg/mL,6.2 µg/mL,> 100 µg/mL,1.56 µg/mL,CC[C@H]1OC(=O)[C@H](C)[C@@H](O[C@H]2C[C@@](C)(OC)[C@@H](O)[C@H](C)O2)[C@H](C)[C@@H](O[C@@H]2O[C@H](C)C[C@H](N(C)C)[C@H]2O)[C@@](C)(O)C[C@@H](C)[C@@H](N(C)C)[C@H](C)[C@@H](O)[C@@]1(O)CO,MIC (Streptococcus equinus): 3.1 µg/mL; MIC (Pseudomonas aeruginosa [16]): 50 µg/mL; MIC (Pseudomonas aeruginosa [17]): > 100 µg/mL
0.1 µg/mL,0.05 µg/mL,100 µg/mL,0.78 µg/mL,50 µg/mL,0.39 µg/mL,6.2 µg/mL,0.78 µg/mL,100 µg/mL,12.5 µg/mL,> 100 µg/mL,> 100 µg/mL,0.39 µg/mL,25 µg/mL,0.02 µg/mL,> 100 µg/mL,0.78 µg/mL,0.1 µg/mL,100 µg/mL,0.05 µg/mL,CC[C@H]1OC(=O)[C@H](C)[C@@H](O[C@H]2C[C@@](C)(OC)[C@@H](O)[C@H](C)O2)[C@H](C)[C@@H](O[C@H]2O[C@H](C)C[C@H](N(C)C)[C@H]2O)[C@@](C)(O)C[C@@H](C)[C@@H](N(C)C)[C@H](C)[C@@H](O)[C@@]12CO2,MIC (Streptococcus equinus): 0.02 µg/mL; MIC (Pseudomonas aeruginosa [16]): 12.5 µg/mL; MIC (Pseudomonas aeruginosa [17]): > 100 µg/mL
0.78 µg/mL,0.78 µg/mL,100 µg/mL,6.2 µg/mL,50 µg/mL,0.39 µg/mL,50 µg/mL,6.2 µg/mL,> 100 µg/mL,3.1 µg/mL,100 µg/mL,100 µg/mL,6.2 µg/mL,25 µg/mL,1.56 µg/mL,> 100 µg/mL,6.2 µg/mL,0.78 µg/mL,50 µg/mL,0.39 µg/mL,CC[C@H]1OC(=O)[C@H](C)[C@@H](O[C@H]2C[C@@](C)(OC)[C@@H](O)[C@H](C)O2)[C@H](C)[C@@H](O[C@@H]2O[C@H](C)C[C@H](N(C)C)[C@H]2O)[C@@](C)(O)C[C@@H](C)[C@@H](N(C)C)[C@H](C)[C@@H](O)[C@H]1CO,MIC (Streptococcus equinus): 0.78 µg/mL; MIC (Pseudomonas aeruginosa [16]): 1.56 µg/mL; MIC (Pseudomonas aeruginosa [17]): 50 µg/mL
0.1 µg/mL,0.1 µg/mL,50 µg/mL,0.78 µg/mL,25 µg/mL,0.1 µg/mL,100 µg/mL,0.78 µg/mL,50 µg/mL,12.5 µg/mL,> 100 µg/mL,50 µg/mL,0.39 µg/mL,12.5 µg/mL,0.2 µg/mL,> 100 µg/mL,0.39 µg/mL,0.1 µg/mL,25 µg/mL,0.05 µg/mL,CC[C@H]1OC(=O)[C@H](C)[C@@H](O[C@H]2C[C@@](C)(OC)[C@@H](O)[C@H](C)O2)[C@H](C)[C@@H](O[C@@H]2O[C@H](C)C[C@H](N(C)C)[C@H]2O)[C@@](C)(O)C[C@@H](C)[C@@H](N(C)C)[C@H](C)[C@@H](O)[C@]1(C)O,MIC (Streptococcus equinus): 0.1 µg/mL; MIC (Pseudomonas aeruginosa [16]): 12.5 µg/mL; MIC (Pseudomonas aeruginosa [17]): > 100 µg/mL
